Assay results: patent US20210052701A1, “Methods of Treating Vascular Leakage Using CXCL12 Peptides” (The Medical College of Wisconsin, Inc., priority 2018, published 2021)
Entries after “also recorded” stand apart in the source; their conditions may differ. Where two headings read alike, the source gives them in different places. Blank lines part the entries; values can stand above or below the molecule they belong to.

What was measured:
ACKR3 = target: T1, ACKR3 (Homo sapiens, UniProt P25106); experiment: Presto-Tango β-arrestin 2 recruitment assay for ACKR3; type: cell-based
T1 construct: host or cells: HTLA cells (HEK293 line stably expressing a tTA-dependent luciferase reporter and a β-arrestin2-TEV fusion gene)
Description: (§1) FIGS. 6A-6F show Presto-Tango β-arrestin 2 recruitment assays for CXCR4 (A-C) and ACKR3 (D-F). RLU %: % of the luminescence signal for 1 μM CXCL12α. N=9 for CXCL12a and n=3 for all other proteins.
(§2) Presto-Tango β-arrestin 2 recruitment assay—The PRESTO-Tango (parallel receptorome expression and screening via transcriptional out-put, with transcriptional activation following arrestin translocation) assay was performed as recently described. The Tango plasmids were a gift from Dr. Bryan Roth (all from Addgene). HTLA cells (2.5×10^5/well) were seeded in a 6-well plate and transfected with 1.5 μg of the Tango plasmids using Lipofectamine 3000 (ThermoScientific). The following day, transfected HTLA cells (1×10^5 cells/well) were plated onto Poly-L-Lysine pre-coated 96-well micro-plates and allowed to attach to the plate surface for at least 4 hours prior to treatment. Proteins used for treatment were prepared in twice the final concentration in culture media, added at a 1:1 vol/vol ratio and incubated overnight at 37° C., 5% CO2 in a humidified environment. The following morning, media was removed from cell culture plates and replaced with a 100 μL 1:5 mixture of Bright-Glo (Promega) and 1×HBSS, 20 mM HEPES solution. Plates were then incubated at room temperature before measuring luminescence on a Biotek Synergy II plate reader.

CXCR4 = target: T2, CXCR4 (Homo sapiens, UniProt P61073); experiment: Presto-Tango β-arrestin 2 recruitment assay for CXCR4; type: cell-based
T2 construct: host or cells: HTLA cells (HEK293 line stably expressing a tTA-dependent luciferase reporter and a β-arrestin2-TEV fusion gene)
Description: as §1, §2

hPPAEC [1] = experiment: Thrombin dose-response in hPPAEC monolayer permeability assay; type: cell-based, human; settings: for EC50: read-out: EC50 for thrombin-induced impairment of hPPAEC barrier function; for maximal impairment of endothelial barrier function: 100% = permeability in the absence of hPPAEC
Description: FIGS. 2A-2B show impairment of hPPAEC monolayer permeability by thrombin. (A) hPPAEC were grown to a confluent monolayer on collagen-coated permeable membranes and then exposed to different concentration of thrombin for 10 min, followed by the addition of FITC-dextran. Endothelial permeability was assessed by measuring the amount of FITC-dextran that permeated through the cell monolayer. No cells: 100% permeability. RFU: Relative fluorescence units. N=3 in quadruplicate. (B) Dose-response curves for thrombin-induced permeability, data from A. 100% permeability=permeability in the absence of hPPAEC. Open squares: Permeability at t=55 min. Light grey squares: Permeability at t=135 min. Dark grey squares: Permeability at t=255 min. Dose-response curves were generated using nonlinear regression analyses.
(§3) In vitro vascular permeability assays—Permeability assays were obtained from Millipore (ECM642) and performed as per manufacturer's instructions. In brief, 96-well collagen-coated permeability assay plates were pre-hydrated for 15 min, 5×10^5 cells were seeded on each well and grown to a confluent monolayer for 48 hours. Fluorescein isothiocyanate (FITC)-dextran (20 μg/mL) was then added on top of the monolayer and the amount of FITC-dextran that permeated through the monolayer was quantified by measuring fluorescence in a Synergy 2 Multi-mode Microplate Reader (BioTek, Winooski, Vt.) at various time points over a 255 min time period.
Data analysis—Data are expressed as mean±SEM from n independent experiments that were performed on different days. Data were analyzed with unpaired Student's t test, one- or two-way analyses of variance with Bonferroni's multiple comparison post hoc test, as appropriate. Dose-response curves were generated using nonlinear regression analyses. All analyses were performed with the GraphPad-Prism 7 software. A two-tailed P<0.05 was considered significant.

HULEC-5a = experiment: Thrombin dose-response in HULEC-5a monolayer permeability assay; type: cell-based, human; settings: read-out: EC50 for thrombin-induced impairment of HULEC-5a barrier function
Description: FIGS. 4A-4D show effects of CXCL12 and ubiquitin on thrombin-induced impairment of HULEC-5a monolayer permeability. (A) HULEC-5a were grown to a confluent monolayer on collagen-coated permeable membranes and then exposed to different concentration of thrombin for 10 min, followed by the addition of FITC-dextran. Endothelial permeability was assessed by measuring the amount of FITC-dextran that permeated through the cell monolayer. No cells: 100% permeability. RFU: Relative fluorescence units. N=3 in quadruplicate. (B) Dose-response curves for thrombin-induced permeability, data from A. 100% permeability=permeability in the absence of HULEC-5a. Open squares: Permeability at t=55 min. Light grey squares: Permeability at t=135 min. Dark grey squares: Permeability at t=255 min. (C/D) HULEC-5a were grown to a confluent monolayer on collagen-coated permeable membranes and then exposed to 50 nM of thrombin or vehicle. After 10 min, thrombin-exposed cells were treated with vehicle, CXCL12 (50 nM) (C) or ubiquitin (50 nM) (D), followed by the addition of FITC-dextran. The experimental conditions are indicated. Endothelial permeability was assessed by measuring the amount of FITC-dextran that permeated through the cell monolayer. RFU: Relative fluorescence units. N=3 in quadruplicate. *: p<0.05 vs. thrombin/vehicle (2-way ANOVA/Bonferroni's multiple comparison post hoc test).
as §3

hPPAEC [2] = experiment: Effects of CXCR4 agonists / CXCL12 variants on thrombin-induced impairment of hPPAEC monolayer permeability; type: cell-based, human
Description: FIGS. 3A-3D show effects of CXCL12 and ubiquitin on thrombin-induced impairment of hPPAEC monolayer permeability. hPPAEC were grown to a confluent monolayer on collagen-coated permeable membranes. (A) hPPAEC were pre-treated with vehicle, 100 nM of CXCL12 or ubiquitin for 10 minutes, as indicated, and then exposed to thrombin (50 nM), followed by the addition of FITC-dextran. Vehicle: no thrombin. Endothelial permeability was assessed by measuring the amount of FITC-dextran that permeated through the cell monolayer. No cells: 100% permeability (open circles). RFU: Relative fluorescence units. N=3 in quadruplicate. *: p<0.05 vs. vehicle/thrombin. (B-D) hPPAEC were exposed to 35 nM of thrombin or vehicle. After 10 min, thrombin-exposed cells were treated with vehicle, CXCL12 (50 nM) and/or AMD3100 (10 μM) (B), with vehicle, ubiquitin (50 nM) and/or AMD3100 (10 μM) (C) or with various concentrations of ubiquitin (D) followed by the addition of FITC-dextran. The experimental conditions are indicated. Endothelial permeability was assessed by measuring the amount of FITC-dextran that permeated through the cell monolayer. RFU: Relative fluorescence units. N=3 in quadruplicate. *: p<0.05 vs. thrombin/vehicle (2-way ANOVA/Bonferroni's multiple comparison post hoc test).
(§4) FIGS. 7A-7D show dose-dependent effects of CXCL12α/β, CXCL12 (3-68) and CXCL12 mutants K27A/R41A/R47A, R47E and S-S4V on thrombin-induced impairment of hPPAEC monolayer permeability. hPPAEC cells were grown to a confluent monolayer on collagen-coated permeable membranes. hPPAEC were then exposed to 35 nM of thrombin. After 10 min, thrombin-exposed cells were treated with vehicle or 50 nM (A), 5 nM (B), 0.5 nM (C) or 0.05 nM (D) of the various proteins, as indicated. In (D) 5 nM CXCL12a was used as a positive control. N=3 in quadruplicate.
as §4, with “8A-8D” for “7A-7D”, “CXCL12α, CXCL121” for “CXCL12α/β, CXCL12 (3-68)”, “CXCL122” for “CXCL12 mutants K27A/R41A/R47A, R47E and S-S4V”, “CXCL12α” for “CXCL12a”
FIGS. 9A-9B show inhibition of thrombin-induced hyper-permeability of hPPAEC by CXCL12/CXCL12 variants. % inhibition: % inhibition of thrombin-induced hyperpermeability. Data from FIGS. 7 and 8 at t=255 min. N=3 in quadruplicate. *: p<0.05 vs. CXCL12a (2-way ANOVA/Bonferroni's multiple comparison post hoc test).
as §3

[3] = tested on: animal model of acute respiratory distress syndrome (ARDS); experiment: Animal model of ARDS: lung ischemia reperfusion injury plus hemorrhage (P:F ratio, lung injury score); type: in vivo, Sprague-Dawley rats; settings: 0.14 μmol/kg i.v. within 10 min after reperfusion; until t=300 min
Description: Animals underwent 70 min of […] lung ischemia for 70 min plus hemorrhage to a MAP of 40 mmHg for the last 30 min of ischemia, followed by fluid resuscitation to a MAP of 60 mmHg until t=300 min. Arrow: drug injection. Dashed lines indicate the P:F ratio (mmHg) threshold values for the diagnosis of mild, moderate and severe ARDS. Vehicle: n=5. CXCL12: n=3. CXCL12: n=4. CXCL12-LM: n=3, CXCL12-LD: n=4. CXCL12 K27A/R41A/R47A: n=3. LI+HEM: lung ischemia reperfusion injury plus hemorrhage. Data are mean±SEM. *: p<0.05 vs. vehicle (2-way ANOVA/Dunnett's multiple comparisons test).
FIGS. 12A-12C show lung histology after treatment with CXCL12 and engineered CXCR4 agonists A. Lung specimens were placed in formalin fixative solution and were then embedded in paraffin wax, sliced into 5 μm sections and stained with H&E. Representative images from H&E stained lung sections from animals after vehicle (left) and CXCL12 ([…], right treatment. B/C. Lung injury scores (B. uninjured (left) lung; C. injured (right) lung). Data are median±interquartile ranges. Data were analyzed with the Kruskal Wallis test with Dunn's multiple comparisons test. The level of statistical significance (p) vs. ctrl. (vehicle treatment) indicated.
We tested therapeutic efficacy of wild-type CXCL12, CXXL12-locked dimer (LD), CXCL12-locked monomer (LM) and the triple mutant CXCL12 K27A/R41A/R47A in an animal model of acute respiratory distress syndrome (ARDS) (FIG. 11). All drugs were injected in a dose of 0.14 μmol/kg. Male Sprague-Dawley rats were anesthetized, orotracheally intubated, instrumented with arterial/venous catheters, and mechanically ventilated (PEEP 2 mmHg, FiO2 1.0). After a right lateral thoracotomy, a suture was tied around the hilum of the right lung. Animals underwent 70 min of right lung ischemia plus hemorrhage to a mean arterial blood pressure (MAP) of 40 mmHg for the last 30 min of lung ischemia. At t=70 min, the suture was removed, animals were ventilated with FiO2 1.0, PEEP 5 mmHg and resuscitated with crystalloids to a MAP of 60 mmHg until t=300 min. Vehicle and drugs were injected i.v. within 10 min after reperfusion.
We further evaluated histomorphology of the lungs from animals treated with vehicle, wild-type CXCL12, CXCL12-LD and CXCXL12-LM utilizing a standardized lung injury score. Lung slides stained with hematoxylin and eosin were examined under a light microscope by 4 investigators blinded to the identity of the specimens. The lung injury score was assessed as previously described/. In brief each investigator rendered a score of 0 (no damage) to 4+(maximal damage) based on an injury grading scale composed of six criteria. The slides were assessed for the extent of alveolar congestion, hemorrhage and edema, as well as alveolar and vessel wall PMN infiltration and alveolar wall thickness. […] Lung injury scores of the uninjured and injured lungs from animals treated with vehicle, wild-type CXCL12, CXCL12-LD and CXCXL12-LM are shown in FIGS. […], respectively.

T1 sequence (P25106 whole entry, the tested form may be a part): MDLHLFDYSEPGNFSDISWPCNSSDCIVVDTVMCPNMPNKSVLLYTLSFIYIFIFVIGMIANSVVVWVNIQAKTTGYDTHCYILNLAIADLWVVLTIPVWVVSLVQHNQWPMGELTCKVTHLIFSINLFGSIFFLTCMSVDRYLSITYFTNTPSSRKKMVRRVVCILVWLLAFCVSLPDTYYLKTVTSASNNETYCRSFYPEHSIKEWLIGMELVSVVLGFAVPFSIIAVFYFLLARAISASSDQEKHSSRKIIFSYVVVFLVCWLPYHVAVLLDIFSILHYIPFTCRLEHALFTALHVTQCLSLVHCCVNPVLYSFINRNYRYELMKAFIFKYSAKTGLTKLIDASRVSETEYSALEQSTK
T2 sequence (P61073 whole entry, the tested form may be a part): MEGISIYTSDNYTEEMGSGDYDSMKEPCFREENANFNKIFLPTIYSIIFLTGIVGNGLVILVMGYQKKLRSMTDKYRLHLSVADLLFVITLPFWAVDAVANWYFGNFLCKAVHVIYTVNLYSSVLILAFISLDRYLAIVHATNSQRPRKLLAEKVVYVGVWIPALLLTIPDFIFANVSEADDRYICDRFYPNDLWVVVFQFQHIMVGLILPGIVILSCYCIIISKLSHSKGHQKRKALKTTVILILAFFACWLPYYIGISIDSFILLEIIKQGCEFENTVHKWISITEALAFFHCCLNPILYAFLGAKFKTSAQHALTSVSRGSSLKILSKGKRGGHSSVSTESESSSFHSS

EC50 (hPPAEC [1]; after 55 min): 30 ± 2 nM
EC50 (hPPAEC [1]; after 135 min): 33 ± 2 nM
EC50 (hPPAEC [1]; after 255 min): 36 ± 2 nM
EC50 (HULEC-5a; after 55 min): 64 ± 7 nM
EC50 (HULEC-5a; after 135 min): 64 ± 6 nM
EC50 (HULEC-5a; after 255 min): 57 ± 5 nM
Molecule: thrombin
maximal impairment of endothelial barrier function (hPPAEC [1]; at 55 min): 49±3%
maximal impairment of endothelial barrier function (hPPAEC [1]; at 135 min): 59±4%
maximal impairment of endothelial barrier function (hPPAEC [1]; at 255 min): 72±4%
time to reach plateau for the permeability-inducing effects (hPPAEC [1]; thrombin 20 nM): 55 min
time to reach plateau for the permeability-inducing effects (hPPAEC [1]; thrombin 40 nM): 135 min
time to reach plateau for the permeability-inducing effects (hPPAEC [1]; thrombin 50 nM): 255 min
time to reach plateau for the permeability-inducing effects (hPPAEC [1]; thrombin 100 nM): 255 min

efficacy for β-arrestin 2 recruitment to ACKR3 (ACKR3): significantly reduced
efficacy to recruit β-arrestin 2 to CXCR4 (CXCR4; top plateau, % of signal for 1 μM CXCL12α): lacked relevant CXCR4 activity
Molecule: CXCL12 (3-68): truncated CXCL12 (3-68), N-terminal truncated
effect on thrombin-mediated impairment of hPPAEC barrier function (hPPAEC [2]; thrombin 35 nM, after 10 min 0.05-50 nM protein): did not attenuate thrombin-induced impairment of hPPAEC barrier function

The next lines start with the molecule.

Molecule: CXCL12 R47E: CXCL12 mutant which activates CXCR4 with reduced potency
ACKR3 activity (in words) (ACKR3): retains ACKR3 activity comparable to wild type proteins
potency (EC50) to recruit β-arrestin 2 to CXCR4, compared with CXCL12α (CXCR4): significantly lower than the potency of CXCL12α

B1: CXCL12 K27A/R41A/R47A: CXCL12 mutant with significantly reduced heparan sulfate proteoglycan binding properties (protein)
chain: KPVSLSYRCPCRFFESHVARANVKHLAILNTPNCALQIVAALKNNNAQVCIDPKLKWIQEYLEKALNK
modifications: ends and bridges not checked
EC50 (potency) for β-arrestin 2 recruitment to ACKR3 (ACKR3): retained high potency to activate ACKR3
potency to attenuate thrombin-induced permeability of hPPAEC (in words) (hPPAEC [2]): same potency as wild type proteins and CXCL121
development of ARDS (P:F ratio) [3]: indistinguishable from vehicle treated animals
potency (EC50) to recruit β-arrestin 2 to CXCR4, compared with CXCL12α (CXCR4): significantly lower than the potency of CXCL12α; also recorded: lowest potency to activate CXCR4
